Counter-ions that a name gives are not always drawn.
Key:
[1] = molecular target: T1, NA uptake (noradrenaline reuptake), synaptosomes from hypothalamus of male rat brains (Rattus norvegicus, UniProt Q63380); assay: Noradrenaline reuptake inhibition (NA uptake inhibition) in rat brain synaptosomes; format: biochemical
T1 construct: synaptosomes are freshly isolated from areas of rat brain; from tissue; host or cells: synaptosomes (P2 fraction) from hypothalamus of male rat brains
Experimental: b) Studies of Noradrenaline Reuptake Inhibition (NA Uptake Inhibition)
In order to be able to carry out these in vitro studies, synaptosomes are freshly isolated from areas of rat brain. A so-called “P2” fraction is used in each case, which is prepared according to the procedure of Gray and Whittaker (E. G. Gray and V. P. Whittaker (1962) J. Anat. 76, 79-88). For NA uptake, these vesicular particles are isolated from the hypothalamus of male rat brains. A detailed description of the method can be found in the literature (M. Ch. Frink, H.-H. Hennies, W. Englberger, M. Haurand and B. Wilffert (1996) Arzneim.-Forsch./Drug Res. 46 (III), 11, 1029-1036).

[2] = molecular target: T2, 5HT uptake (serotonin reuptake), synaptosomes from hypothalamus of male rat brains (Rattus norvegicus, UniProt P31652); assay: Serotonin reuptake inhibition (5HT uptake inhibition) in rat brain synaptosomes; format: biochemical
T2 construct: synaptosomes are freshly isolated from areas of rat brain; from tissue; host or cells: synaptosomes (P2 fraction) from hypothalamus of male rat brains
T2 sequence (P31652 whole entry): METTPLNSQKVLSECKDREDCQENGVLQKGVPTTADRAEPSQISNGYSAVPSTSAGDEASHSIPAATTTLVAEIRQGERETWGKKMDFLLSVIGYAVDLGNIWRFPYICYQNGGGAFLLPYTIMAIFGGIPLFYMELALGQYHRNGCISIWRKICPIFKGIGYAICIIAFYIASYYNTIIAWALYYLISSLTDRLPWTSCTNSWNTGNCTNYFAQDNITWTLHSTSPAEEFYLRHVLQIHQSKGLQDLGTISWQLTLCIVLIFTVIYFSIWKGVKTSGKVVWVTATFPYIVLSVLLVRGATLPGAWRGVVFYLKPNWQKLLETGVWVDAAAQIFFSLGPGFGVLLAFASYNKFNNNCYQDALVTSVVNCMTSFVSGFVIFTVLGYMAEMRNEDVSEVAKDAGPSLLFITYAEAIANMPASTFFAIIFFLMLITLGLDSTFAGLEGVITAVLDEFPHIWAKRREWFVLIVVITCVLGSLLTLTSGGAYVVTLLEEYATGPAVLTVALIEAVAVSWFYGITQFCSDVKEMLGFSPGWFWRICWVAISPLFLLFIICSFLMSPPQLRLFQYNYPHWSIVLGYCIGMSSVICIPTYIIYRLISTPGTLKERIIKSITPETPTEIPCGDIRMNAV
Experimental: Biological Testing a) Studies of Serotonin Reuptake Inhibition (5HT Uptake Inhibition)
In order to be able to carry out these in vitro studies, synaptosomes are freshly isolated from areas of rat brain. A so-called “P2” fraction is used in each case, which is prepared according to the procedure of Gray and Whittaker (E. G. Gray and V. P. Whittaker (1962) J. Anat. 76, 79-88). For 5HT uptake, these vesicular particles are isolated from the hypothalamus of male rat brains. A detailed description of the method can be found in the literature (M. Ch. Frink, H.-H. Hennies, W. Englberger, M. Haurand and B. Wilffert (1996) Arzneim.-Forsch./Drug Res. 46 (III), 11, 1029-1036).

T1 sequence (Q63380 1-617): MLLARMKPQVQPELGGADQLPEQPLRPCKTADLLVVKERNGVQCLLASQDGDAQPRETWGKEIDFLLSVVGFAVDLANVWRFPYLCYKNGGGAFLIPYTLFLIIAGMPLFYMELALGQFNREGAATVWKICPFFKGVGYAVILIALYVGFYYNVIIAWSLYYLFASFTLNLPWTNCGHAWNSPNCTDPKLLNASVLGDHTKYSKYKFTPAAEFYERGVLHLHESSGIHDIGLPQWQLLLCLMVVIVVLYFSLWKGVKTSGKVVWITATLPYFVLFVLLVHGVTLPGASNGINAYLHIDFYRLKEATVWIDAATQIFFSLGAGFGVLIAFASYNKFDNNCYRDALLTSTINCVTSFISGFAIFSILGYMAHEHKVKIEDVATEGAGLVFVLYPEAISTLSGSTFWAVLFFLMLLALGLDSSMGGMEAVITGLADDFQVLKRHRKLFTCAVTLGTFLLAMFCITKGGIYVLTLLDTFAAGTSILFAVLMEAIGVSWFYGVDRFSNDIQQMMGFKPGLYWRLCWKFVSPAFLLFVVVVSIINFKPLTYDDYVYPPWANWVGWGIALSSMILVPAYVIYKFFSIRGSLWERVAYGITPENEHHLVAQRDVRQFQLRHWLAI

| SMILES | inhibition at 10 µM [1] [%] | inhibition at 10 µM [2] [%] |
| --- | --- | --- |
| CSc1ccc(C2(O)CCC3(CC2CN(C)C)NCCc2c3[nH]c3ccccc23)cc1 (stereo not shown) [Example 26, 1,1-(2-(Dimethylaminomethyl)-3-hydroxy-3-(4-methylthiophenyl)-pentamethylene)-3,4-dihydro-1H-2,9-diazafluorene citrate] | 40 |  |
| CSc1ccc(C2(O)CCC3(CC2CN(C)C)OCCc2c3sc3ccccc23)cc1 (stereo not shown) [Example 31, 1,1-(2-(dimethylaminomethyl)-3-hydroxy-3-(4-methylthiophenyl)-pentamethylene)-1,3,4,9-tetrahydro-pyrano[3,4-b]benzothiophene citrate] | 60 | 82 |
| CN(C)CC1CC2(CCC1(O)c1cccc(F)c1)SCCc1c2[nH]c2ccccc12 (stereo not shown) [Example 14, 1,1-(2-(Dimethylaminomethyl)-3-hydroxy-3-(3-fluorophenyl)-pentamethylene)-1,3,4,9-tetrahydro-2-thia-9-aza-fluorene citrate] | 46 | 61 |
| CN(C)CC1CC2(CCC1(O)c1ccc(C(F)(F)F)cc1)NCCc1c2[nH]c2cc(F)ccc12 (stereo not shown) [Example 33, 1,1-(2-(Dimethylaminomethyl)-3-hydroxy-3-(4-trifluoromethylphenyl)-pentamethylene)-7-fluoro-3,4-dihydro-1H-2,9-diazafluorene citrate] | 68 | 78 |
| CSc1ccc(C2(O)CCC3(CC2CN(C)C)SCCc2c3[nH]c3ccccc23)cc1 (stereo not shown) [Example 23, 1,1-(2-(Dimethylaminomethyl)-3-hydroxy-3-(4-methylthiophenyl)-pentamethylene)-1,3,4,9-tetrahydro-2-thia-9-aza-fluorene sesquicitrate] |  | 50 |
| CN(C)CC1CC2(CCC1(O)c1cccc(F)c1)OCCc1c2sc2ccccc12 (stereo not shown) [Example 10, 1,1-(2-(Dimethylaminomethyl)-3-hydroxy-3-(3-fluorophenyl)-pentamethylene)-1,3,4,9-tetrahydro-pyrano[3,4-b]benzothiophene citrate] | 55 | 88 |
| COc1ccc2[nH]c3c(c2c1)CCNC31CCC(O)(c2cccc(F)c2)C(CN(C)C)C1 (stereo not shown) [Example 21, 1,1-(2-(Dimethylaminomethyl)-3-hydroxy-3-(3-fluorophenyl)-pentamethylene)-3,4-dihydro-6-methoxy-1H-2,9-diazafluorene citrate] | 44 | 57 |
| CSc1ccc(C2(O)CCC3(CC2CN(C)C)OCCc2c3oc3ccccc23)cc1 (stereo not shown) [Example 30, 1,1-(2-(dimethylaminomethyl)-3-hydroxy-3-(4-methylthiophenyl)-pentamethylene)-1,3,4,9-tetrahydro-pyrano[3,4-b]benzofuran citrate] | 37 | 83 |
| Cc1ccccc1C1(O)CCC2(CC1CN(C)C)OCCc1c2sc2ccccc12 (stereo not shown) [Example 11, 1,1-(2-(Dimethylaminomethyl)-3-hydroxy-3-(2-methylphenyl)-pentamethylene)-1,3,4,9-tetrahydro-pyrano[3,4-b]benzothiophene citrate] | 43 | 85 |
| Cc1ccccc1C1(O)CCC2(CC1CN(C)C)SCCc1c2[nH]c2ccccc12 (stereo not shown) [Example 24, 1,1-(2-(Dimethylaminomethyl)-3-hydroxy-3-(2-methylphenyl)-pentamethylene)-1,3,4,9-tetrahydro-2-thia-9-aza-fluorene citrate] | 42 | 75 |
| CN(C)CC1CC2(CCC1(O)c1ccc(C(F)(F)F)cc1)OCCc1c2sc2ccccc12 (stereo not shown) [Example 29, 1,1-(2-(Dimethylaminomethyl)-3-hydroxy-3-(4-trifluoromethylphenyl)-pentamethylene)-1,3,4,9-tetrahydro-pyrano[3,4-b]benzothiophene citrate] | 35 | 47 |
| CN(C)CC1CC2(CCC1(O)c1ccc(C(F)(F)F)cc1)OCCc1c2oc2ccccc12 (stereo not shown) [Example 13, 1,1-(2-(Dimethylaminomethyl)-3-hydroxy-3-(4-trifluoromethylphenyl)-pentamethylene)-1,3,4,9-tetrahydro-pyrano[3,4-b]benzofuran citrate] | 46 | 60 |
| Cc1ccccc1C1(O)CCC2(CC1CN(C)C)NCCc1c2[nH]c2ccccc12 (stereo not shown) [Example 6, 1,1-(2-(Dimethylaminomethyl)-3-hydroxy-3-(2-methylphenyl)-pentamethylene)-3,4-dihydro-1H-2,9-diazafluorene citrate] |  | 69 |
| CN(C)CC1CC2(CCC1(O)c1ccccc1)NCCc1c2[nH]c2cc(F)ccc12 (stereo not shown) [Example 35, 1,1-(2-(Dimethylaminomethyl)-3-hydroxy-3-phenyl-pentamethylene)-7-fluoro-3,4-dihydro-1H-2,9-diazafluorene dicitrate] |  | 67 |
| CN(C)CC1CC2(CCC1(O)c1ccccc1)OCCc1c2sc2ccccc12 (stereo not shown) [Example 7, 1,1-(2-(Dimethylaminomethyl)-3-hydroxy-3-phenyl-pentamethylene)-1,3,4,9-tetrahydro-pyrano[3,4-b]benzothiophene citrate] | 59 | 88 |
| CN(C)CC1CC2(CCC1(O)c1cccc(F)c1)NCCc1c2[nH]c2cc(F)ccc12 (stereo not shown) [Example 16, 1,1-(2-(Dimethylaminomethyl)-3-hydroxy-3-(3-fluorophenyl)-pentamethylene)-7-fluoro-3,4-dihydro-1H-2,9-diazafluorene sesquicitrate] |  | 72 |
| CN(C)CC1CC2(CCC1(O)c1cccc(F)c1)NCCc1c2[nH]c2ccccc12 (stereo not shown) [Example 3, 1,1-(2-(Dimethylaminomethyl)-3-hydroxy-3-(3-fluorophenyl)-pentamethylene)-3,4-dihydro-1H-2,9-diazafluorene citrate] | 48 | 75 |
| CSc1ccc(C2(O)CCC3(CC2CN(C)C)OCCc2c3[nH]c3ccccc23)cc1 (stereo not shown) [Example 20, 1,1-(2-(Dimethylaminomethyl)-3-hydroxy-3-(4-methylthiophenyl)-pentamethylene)-1,3,4,9-tetrahydro-pyrano[3,4-b]indole citrate] |  | 58 |
| COc1ccc2[nH]c3c(c2c1)CCNC31CCC(O)(c2ccc(C(F)(F)F)cc2)C(CN(C)C)C1 (stereo not shown) [Example 22, 1,1-(2-(Dimethylaminomethyl)-3-hydroxy-3-(4-trifluoromethylphenyl)-pentamethylene)-3,4-dihydro-6-methoxy-1H-2,9-diazafluorene citrate] |  | 47 |
| COc1ccc2[nH]c3c(c2c1)CCNC31CCC(O)(c2ccccc2)C(CN(C)C)C1 (stereo not shown) [Example 17, 1,1-(2-(Dimethylaminomethyl)-3-hydroxy-3-phenyl-pentamethylene)-3,4-dihydro-6-methoxy-1H-2,9-diazafluorene citrate] |  | 57 |
| COc1ccc2[nH]c3c(c2c1)CCOC31CCC(O)(c2ccc(SC)cc2)C(CN(C)C)C1 (stereo not shown) [Example 18, 1,1-(2-(Dimethylaminomethyl)-3-hydroxy-3-(4-methylthiophenyl)-pentamethylene)-1,3,4,9-tetrahydro-6-methoxy-pyrano[3,4-b]indole citrate] | 41 |  |
| CN(C)CC1CC2(CCC1(O)c1ccccc1)SCCc1c2[nH]c2ccccc12 (stereo not shown) [Example 9, 1,1-(2-(Dimethylaminomethyl)-3-hydroxy-3-phenyl-pentamethylene)-1,3,4,9-tetrahydro-2-thia-9-aza-fluorene citrate] |  | 81 |

— patent publication US7776848B2, “Spirocyclic cyclohexane compounds” (Gruenenthal GmbH, priority 2004, dated 2010)
